Key:
giant foxtail = assay: Test B pre-/postemergence herbicide test; type: in vivo, Setaria faberi
Method in brief: (§1)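 Plants compared with untreated controls 13–15 days post-treatment and given a visual 0–100 injury score. Applications: preemergence to seeds; postemergence at 1- to 4-leaf (2–18 cm); paddy species flooded, 2-leaf stage. Vehicle non-phytotoxic, surfactant included.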

goosegrass = assay: Test C pre-/postemergence herbicide test; type: in vivo, Eleusine indica
Method in brief: (§2)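 Preemergence: seeds planted and treated with compound in non-phytotoxic solvent with surfactant; postemergence: plants at 2 to 18 cm (1- to 4-leaf stage) sprayed likewise. Kept in greenhouse 12 to 14 days, then visually rated against controls, 0 (no effect) to 100 (complete control).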

common ragweed = assay: Test C pre-/postemergence herbicide test; type: in vivo, Ambrosia elatior; design: key to Plant response rating, Ragweed: 0 = no effect, 100 = complete control
Method in brief: as §2

pigweed = assay: Test B pre-/postemergence herbicide test; type: in vivo, Amaranthus retroflexus
Method in brief: as §1

lambsquarters = assay: Test C pre-/postemergence herbicide test; type: in vivo, Chenopodium album
Method in brief: as §2

kochia = assay: Test C pre-/postemergence herbicide test; type: in vivo, Kochia scoparia
Method in brief: as §2

Surinam grass = assay: Test C pre-/postemergence herbicide test; type: in vivo, Urochloa decumbens
Method in brief: as §2

large crabgrass = assay: Test C pre-/postemergence herbicide test; type: in vivo, Digitaria sanguinalis
Method in brief: as §2

[1] = tested on: smallflower umbrella sedge; assay: Test C flooded paddy test; type: in vivo, Cyperus difformis; conditions: for Plant response rating, Sedge, Umbrella: visual rating after 12 to 14 days
[2] = Postemergence, 500 g ai/ha, visual rating after 13 to 15 days, scale 0 (no effect) to 100 (complete control)
[3] = Preemergence, 500 g ai/ha, scale 0 to 100
[4] = preemergence, 125 g ai/ha, 0 to 100 scale, 0 is no effect, 100 is complete control
[5] = 125 g ai/ha, scale 0-100, preemergence
[6] = 250 g ai/ha, scale 0 to 100 (0 no effect, 100 complete control), visual, 12 to 14 days, preemergence
[7] = Postemergence, 500 g ai/ha, scale 0 to 100
[8] = Postemergence, 125 g ai/ha, scale 0 to 100, 0 no effect, 100 complete control
[9] = Postemergence, 250 g ai/ha, scale 0 to 100, 0 no effect, 100 complete control
[10] = Preemergence, 500 g ai/ha, scale 0 to 100, 0 no effect, 100 complete control
[11] = postemergence, 62 g ai/ha, scale 0 to 100
[12] = postemergence, 125 g ai/ha, scale 0 to 100
[13] = 500 g ai/ha, scale 0 to 100 (0 no effect, 100 complete control)
[14] = 125 g ai/ha, 0 is no effect, 100 is complete control, preemergence
[15] = Postemergence, 500 g ai/ha, scale 0 (no effect) to 100 (complete control)
[16] = 62 g ai/ha, preemergence, scale 0 to 100
[17] = 250 g ai/ha, scale 0-100, preemergence
[18] = 500 g ai/ha, scale 0 to 100 (0 no effect, 100 complete control), visual, 12 to 14 days, preemergence

In the case of `CCNC(=O)c1cccc(NC(=O)c2cc(C(C)(C)C)nn2CC(F)(F)F)c1` [Compound 31], the “Foxtail, Giant plant response rating” value (giant foxtail; Postemergence, 125 g ai/ha, scale 0 (no effect) to 100 (complete control)) is reported as 20, the “Plant response rating, Foxtail, Giant” value (giant foxtail; [2]) is reported as 30 and the “Foxtail, Giant plant response rating” value (giant foxtail; [3]) is reported as 90. For the same compound, the “Plant response rating, Foxtail, Giant” value (giant foxtail; [4]) was 60, the “Plant response rating (0 = no effect, 100 = complete control), Goosegrass” value (goosegrass; 62 g ai/ha, preemergence) was 30 and the “Plant response rating, Goosegrass” value (goosegrass; [5]) was 30. The “Plant response rating, Goosegrass” value (goosegrass; [6]) was 40, the “Goosegrass plant response rating” value (goosegrass; [7]) was 40 and the “Plant response rating, Goosegrass” value (goosegrass; [8]) was 30. For the same compound, the “Plant response rating, Goosegrass” value (goosegrass; [9]) was 40, the “Goosegrass plant response rating” value (goosegrass; [10]) was 90 and the “Plant response rating, Goosegrass” value (goosegrass; [11]) was 30. The “Plant response rating (0 = no effect, 100 = complete control), Ragweed” value (common ragweed; 62 g ai/ha, preemergence) was 0, the “Plant response rating, Ragweed” value (common ragweed; [6]) was 60 and the “Ragweed plant response rating” value (common ragweed; [7]) was 70. The “Plant response rating, Ragweed” value (common ragweed; [9]) was 40, the “Ragweed plant response rating” value (common ragweed; [10]) was 80 and the “Plant response rating, Ragweed” value (common ragweed; [12]) was 40. For the same compound, the “Plant response rating, Ragweed” value (common ragweed; [11]) was 30, the “Plant response rating, Pigweed” value (pigweed; [2]) was 90 and the “Pigweed plant response rating” value (pigweed; [3]) was 100. The “Plant response rating, Pigweed” value (pigweed; [4]) was 70, the “Plant response rating (0 = no effect, 100 = complete control), Lambsquarters” value (lambsquarters; 62 g ai/ha, preemergence) was 90 and the “Plant response rating, Lambsquarters” value (lambsquarters; [5]) was 100. The “Plant response rating, Lambsquarters” value (lambsquarters; [6]) was 100, the “Lambsquarters plant response rating” value (lambsquarters; [7]) was 90 and the “Plant response rating, Lambsquarters” value (lambsquarters; [9]) was 90. For the same compound, the “Lambsquarters plant response rating” value (lambsquarters; [10]) was 100, the “Plant response rating, Lambsquarters” value (lambsquarters; [12]) was 80 and the “Plant response rating, Lambsquarters” value (lambsquarters; [11]) was 80. The “Plant response rating (0 = no effect, 100 = complete control), Kochia” value (kochia; 62 g ai/ha, preemergence) was 0, the “Plant response rating, Kochia” value (kochia; [5]) was 80 and the “Plant response rating, Kochia” value (kochia; [6]) was 100. For the same compound, the “Kochia plant response rating” value (kochia; [7]) was 70, the “Plant response rating, Kochia” value (kochia; [8]) was 70 and the “Plant response rating, Kochia” value (kochia; [9]) was 70. The “Kochia plant response rating” value (kochia; [10]) was 100, the “Plant response rating, Kochia” value (kochia; [11]) was 70 and the “Plant response rating (0 = no effect, 100 = complete control), Surinam Grass” value (Surinam grass; 62 g ai/ha, preemergence) was 10. The “Plant response rating, Surinam Grass” value (Surinam grass; [6]) was 30, the “Surinam Grass plant response rating” value (Surinam grass; [7]) was 50 and the “Plant response rating, Surinam Grass” value (Surinam grass; [9]) was 50. The “Surinam Grass plant response rating” value (Surinam grass; [10]) was 60, the “Plant response rating, Surinam Grass” value (Surinam grass; [12]) was 40 and the “Plant response rating, Surinam Grass” value (Surinam grass; [11]) was 30. For the same compound, the “Plant response rating (0 = no effect, 100 = complete control), Crabgrass, Large” value (large crabgrass; 62 g ai/ha, preemergence) was 90, the “Plant response rating, Crabgrass, Large” value (large crabgrass; [5]) was 100 and the “Plant response rating, Crabgrass, Large” value (large crabgrass; [6]) was 100. For the same compound, the “Crabgrass, Large plant response rating” value (large crabgrass; [7]) was 70, the “Plant response rating, Crabgrass, Large” value (large crabgrass; [8]) was 60 and the “Plant response rating, Crabgrass, Large” value (large crabgrass; [9]) was 60. For the same compound, the “Crabgrass, Large plant response rating” value (large crabgrass; [10]) was 100, the “Plant response rating, Crabgrass, Large” value (large crabgrass; [11]) was 50 and the “Sedge, Umbrella plant response rating” value ([1]; 62 g ai/ha, scale 0 to 100 (0 no effect, 100 complete control)) was 0. For the same compound, the “Sedge, Umbrella plant response rating” value ([1]; 125 g ai/ha, scale of 0 to 100, 0 is no effect, 100 is complete control) was 35, the “Plant response rating, Sedge, Umbrella” value ([1]; 250 g ai/ha, scale 0 to 100 (0 no effect, 100 complete control)) was 40 and the “Plant response rating, Sedge, Umbrella” value [1, 13] was 55.

`CCc1nn(C(C)C)nc1C(=O)Nc1cccc(C(=S)N(C)C)c1` [Compound 409] was tested, and the “Plant response rating (0 to 100 scale), Foxtail, Giant” value (giant foxtail; [14]) was 70, the “Foxtail, Giant plant response rating” value (giant foxtail; [15]) was 20 and the “Foxtail, Giant plant response rating” value (giant foxtail; [12]) was 0. For the same compound, the “Plant response rating, Goosegrass” value (goosegrass; [16]) was 80, the “Plant response rating (0 = no effect, 100 = complete control), Goosegrass” value (goosegrass; 125 g ai/ha, preemergence) was 90 and the “Plant response rating, Goosegrass” value (goosegrass; [17]) was 95. For the same compound, the “Plant response rating, Goosegrass” value (goosegrass; [18]) was 95, the “Plant response rating, Ragweed” value (common ragweed; [16]) was 45 and the “Plant response rating (0 = no effect, 100 = complete control), Ragweed” value (common ragweed; 125 g ai/ha, preemergence) was 85. The “Plant response rating, Ragweed” value (common ragweed; [18]) was 95, the “Plant response rating (0 to 100 scale), Pigweed” value (pigweed; [14]) was 90 and the “Pigweed plant response rating” value (pigweed; [15]) was 70. For the same compound, the “Pigweed plant response rating” value (pigweed; [12]) was 30, the “Plant response rating, Lambsquarters” value (lambsquarters; [16]) was 100 and the “Plant response rating, Lambsquarters” value (lambsquarters; [17]) was 100. For the same compound, the “Plant response rating, Lambsquarters” value (lambsquarters; [18]) was 100, the “Plant response rating (0 = no effect, 100 = complete control), Kochia” value (kochia; 125 g ai/ha, preemergence) was 70 and the “Plant response rating, Kochia” value (kochia; [17]) was 85. The “Plant response rating, Kochia” value (kochia; [18]) was 95, the “Plant response rating, Surinam Grass” value (Surinam grass; [16]) was 50 and the “Plant response rating (0 = no effect, 100 = complete control), Surinam Grass” value (Surinam grass; 125 g ai/ha, preemergence) was 85. For the same compound, the “Plant response rating, Surinam Grass” value (Surinam grass; [18]) was 95, the “Plant response rating, Crabgrass, Large” value (large crabgrass; [16]) was 85 and the “Plant response rating (0 = no effect, 100 = complete control), Crabgrass, Large” value (large crabgrass; 125 g ai/ha, preemergence) was 95. For the same compound, the “Plant response rating, Crabgrass, Large” value (large crabgrass; [17]) was 95, the “Plant response rating, Crabgrass, Large” value (large crabgrass; [18]) was 95 and the “Sedge, Umbrella plant response rating” value ([1]; 62 g ai/ha, scale 0 to 100) was 70. For the same compound, the “Sedge, Umbrella plant response rating” value ([1]; 125 g ai/ha, scale 0 to 100 (0 no effect, 100 complete control)) was 75, the “Sedge, Umbrella plant response rating” value ([1]; 250 g ai/ha, scale of 0 to 100, 0 is no effect, 100 is complete control) was 85 and the “Plant response rating, Sedge, Umbrella” value [1, 13] was 90.

— US20060069132A1, “Azolecarboxamide herbicides” (priority 2004, published 2006)
